In paper PMC7263589, “Integration of phage and yeast display platforms: A reliable and cost effective approach for binning of peptides as displayed on-phage” (PLoS ONE, 2020):
Bridge positions count the residues as written; N and C are the ends. Ends that are not written are not given here. Peptide text beside a SMILES is read from it.

T1: IL-23:IL-23R (Homo sapiens, UniProt P29460+Q9NPF7)
T1 construct: made in house
T1 sequence (Q9NPF7 20-189): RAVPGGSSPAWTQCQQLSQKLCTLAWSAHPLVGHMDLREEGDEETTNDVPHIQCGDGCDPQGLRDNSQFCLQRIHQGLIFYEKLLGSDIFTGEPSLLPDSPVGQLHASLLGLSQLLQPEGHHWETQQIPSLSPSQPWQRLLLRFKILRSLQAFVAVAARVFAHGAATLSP
T1 sequence (P29460 23-328 partner): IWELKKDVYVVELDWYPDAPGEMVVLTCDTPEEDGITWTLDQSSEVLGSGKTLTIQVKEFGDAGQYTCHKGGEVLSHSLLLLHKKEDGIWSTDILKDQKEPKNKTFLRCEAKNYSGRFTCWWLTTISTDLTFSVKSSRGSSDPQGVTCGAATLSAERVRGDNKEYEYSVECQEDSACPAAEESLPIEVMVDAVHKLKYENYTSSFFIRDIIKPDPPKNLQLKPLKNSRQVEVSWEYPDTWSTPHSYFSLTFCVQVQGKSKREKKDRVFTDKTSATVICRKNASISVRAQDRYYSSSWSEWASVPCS

T2: IL-23 (Homo sapiens, UniProt P29460+Q9NPF7)
T2 construct: made in house
T2 sequence (Q9NPF7 20-189): T1 sequence (Q9NPF7 20-189)
T2 sequence (P29460 23-328): T1 sequence (P29460 23-328 partner)

T3: IL-23 p40 subunit (as in the crystallized IL-23) (human, UniProt P29460 23-328, Two N-Acetylglucosamine sugars modeled at Asn200)
T3 construct: Interleukin-12 subunit beta (p40), human; Chain of Wm1, written on its own for the contacts seen in the structure
T3 sequence (looked up): T1 sequence (P29460 23-328 partner)

T4: IL-23-HIS (human, UniProt Q9NPF7 20-189; P29460 23-328)
T4 construct: IL-23 p19 subunit, human; IL-12/IL-23 p40 subunit, human; also called IL-23 only; IL-23 protein
T4 sequence (looked up) 1: T1 sequence (Q9NPF7 20-189)
T4 sequence (looked up) 2: T1 sequence (P29460 23-328 partner)

T5: IL-23 (heterodimer of the p19 and p40 subunits), protein for crystallization (human, UniProt Q9NPF7 20-189; P29460 23-328, Two N-Acetylglucosamine sugars modeled at Asn200)
T5 construct: Interleukin-23 subunit alpha (p19), human; Interleukin-12 subunit beta (p40), human; attempts were made to limit glycosylation; Multiple flexible loops are missing from the model; also called hu IL-23
T5 sequence (looked up) 1: T1 sequence (Q9NPF7 20-189)
T5 sequence (looked up) 2: T1 sequence (P29460 23-328 partner)

B1: IL-23 p19 subunit (as in the crystallized IL-23) (natural protein, human, UniProt Q9NPF7 20-189, looked up)
chain: T1 sequence (Q9NPF7 20-189)
notes: Interleukin-23 subunit alpha (p19), human; Chain of Wm1, written on its own for the contacts seen in the structure
B2: IL-23R-Fc-AVI (Fc fusion, UniProt Q5VWK5 24-355, looked up)
chain: GITNINCSGHIWVEPATIFKMGMNISIYCQAAIKNCQPRKLHFYKNGIKERFQITRINKTTARLWYKNFLEPHASMYCTAECPKHFQETLICGKDISSGYPPDIPDEVTCVIYEYSGNMTCTWNAGKLTYIDTKYVVHVKSLETEEEQQYLTSSYINISTDSLQGGKKYLVWVQAANALGMEESKQLQIHLDDIVIPSAAVISRAETINATVPKTIIYWDSQTTIEKVSCEMRYKATTNQTWNVKEFDTNFTYVQQSEFYLEPNIKYVFQVRCQETGKRYWQPWSSLFFHKTPETVPQVTSKAFQHDTWNSGLTVASISTGHLTSDNRGDIG
notes: IL-23 receptor (IL-23R); also called IL-23R sensor
B3: peptide 23-652 (peptide)
peptide: DTLTKSFCYFGTWCQMYGST
modifications: disulfide 8-14
notes: selected from a cyclic peptide phage library against IL-23; residues 4-18 are ordered in the structure; also called FGT/FGL-motif containing peptide; source: synthetic peptide (CPC Scientific)

Experiments:
[1] = biological target: T1, IL-23:IL-23R; test: IL-23:IL-23R protein-protein interaction assay, AlphaLISA; format: biochemical; details: disruption of the complex formed by IL-23 and IL-23R
Experimental: For AlphaLISA assay, peptides at concentration of 10 mM were dissolved in DMSO and serial 3-fold dilutions were carried out using acoustic technology, dispensing peptides directly into the assay plate (ProxiPlate-384 Plus). The rest of the reagents were dissolved in assay buffer containing 25 mM HEPES pH 7.4, 150 mM NaCl, 0.02% Tween 20 and 0.1% BSA. IL-23-AVI was pre-incubated with peptide at the indicated concentrations for 30 min at room temperature. Then, FLAG-tagged IL-23R was added to the assay mix and incubated at room temperature for 1 hour. This was followed by addition of Streptavidin-coated donor beads and acceptor beads conjugated to anti-FLAG antibody. Final assay concentration of IL-23-AVI and FLAG-IL-23R were 1.5 nM and 3 nM, respectively. The assay plate was incubated for one additional hour at RT and read in an Envision plate reader. For TR-FRET assay, tested compounds were serially diluted in DMSO using an Echo acoustic and dispensed directly into the final assay plate. Final concentration of DMSO in the assay was 1%. Assays were performed by preincubation of the diluted compounds with IL-23R-FLAG for one hour at room temperature in assay buffer containing 25 mM HEPES, 150 mM NaCl, 0.02% Tween 20, 0.1% BSA; pH 7.4. Next, IL-23-AVI was added to the assay mix and incubated for 1 hour at room temperature. Finally, the detection reagents, Europium-labeled streptavidin and Anti-FLAG IgG conjugated to SureLight–Allophycocyanin were added and incubated overnight at room temperature. Then, assay microplates were read and values were collected as the ratio between fluorescence emission at 665 nm and 615 nm (665/615). The final values were expressed as a percentage of the DMSO treated controls. IC50 values were calculated by fitting the normalized data to a four parameter logistic equation.

[2] = biological target: T2, IL-23; test: SPR direct binding to captured IL-23-AVI (Biacore T200); details: IL-23-AVI captured on streptavidin chip, 25°C, 50 μl/min, 10 mM HEPES pH 7.5, 150 mM NaCl, 0.005% P20, 3% DMSO, 1:1 binding model, multi-cycle (single cycle kinetics for 23–652 and IL-23R), n = 1, 23–447 an estimate, read-out: ka
Experimental: SPR (Biacore T200, GE Healthcare) was used to determine binding constants of the peptides against IL-23 and their competitiveness to IL-23R. All SPR experiments were performed at 25°C with flow rate of 50 μl/min. Assay buffer used in direct binding experiment was 10 mM HEPES pH 7.5, 150 mM NaCl, 0.005% P20, and 3% DMSO. Assay buffer used in competition experiment was 10 mM HEPES pH 7.5, 150 mM NaCl, 0.005% P20, and 1% BSA. All peptides were reconstituted first in DMSO as 10 mM stocks and then diluted into assay buffer. The proteins used in direct binding and competition SPR are described in S1 Table in S1 File. For direct binding of peptides against IL-23, 2000–9000 RU of IL-23-AVI was captured to streptavidin sensor chips (GE Healthcare, Series S Sensor Chip SA, BR-1005-31). Dilution series with 3-fold increment were prepared for each peptide. Initially, all peptides were tested up to 30 μM. Concentration range for some were then lowered accordingly based on affinity or nuisance behavior at high concentrations. SPR “multi-cycle” type was used for peptides 23–644, 23–437, 23–441, 23–446, and 23–447. Each cycle consisted of 30s of analyte injection and then 60s of buffer flow to monitor dissociation. “Single cycle kinetics” (SCK) type was used for 23–652 due to their long dissociation half-lives. Each SCK cycle consisted of five 60s injections of sample in increasing concentration with a final 600s of dissociation. To study IL-23 and IL-23R interaction, 200–1000 RU of IL-23-AVI and IL-23R-Fc-AVI were captured to streptavidin sensor chip. Dilution series with 3-fold increment of IL-23R-FLAG-HIS and IL-23-HIS were run in SCK cycle type as described above except the final dissociation time were 60-300s. Sensorgrams from the entire titration series for each sample were fitted globally to extract binding kinetics and affinity using Biacore T200 Evaluation Software 2.0 (GE Healthcare) according to a 1:1 binding model. To identify IL-23 binders that can block receptor binding, a competition SPR was established. In each SPR cycle, fresh IL-23R was capture (<1000 RU) by injecting 10 μg/ml of IL-23R-Fc-AVI to a Protein-A flow cell at 10 μl/min flow rate for 30s. Analyte consisted of a mixture of 20 nM of IL-23 protein and a single concentration of peptide was then injected for 30s at 50 μl/min to observe IL-23 binding. Finally, the Protein-A surface was regenerated by 10 mM Glycine pH 1.5 for 30s at 30 μl/min. IL-23 at 20 nM without peptide, “IL-23 only”, was used as control to quantify IL-23 binding without blockage; while “cold” IL-23R was used as a positive control for blockage.

[3] = biological target: T3, IL-23 p40 subunit (as in the …); test: crystal structure; IL-23:peptide mixture, 1:1 molar ratio, ~16 mg/mL; sitting-drop vapor diffusion at 8°C; 100 mM Hepes pH 7, 17% w/v PEG 3350, 150 mM potassium nitrate; 2.7 Å, space group P212121; details: both partners purified
[4] = biological target: T4, IL-23-HIS; test: SPR; competition SPR, 25°C; IL-23R-Fc-AVI (<1000 RU) captured on Protein-A; 20 nM IL-23 mixed with one concentration of peptide or cold IL-23R injected 30 s; 10 mM HEPES pH 7.5, 150 mM NaCl, 0.005% P20, 1% BSA; n = 1; details: both partners purified
[5] = biological target: T5, IL-23 (heterodimer of the p19 and p40 …); test: crystal structure; IL-23:peptide mixture, 1:1 molar ratio, ~16 mg/mL; sitting-drop vapor diffusion at 8°C; 100 mM Hepes pH 7, 17% w/v PEG 3350, 150 mM potassium nitrate; 2.7 Å, space group P212121; details: both partners purified

Molecule | AlphaLISA potency [1] | kon [2] [M⁻¹ s⁻¹] | further results
CC(C)C[C@@H]1NC(=O)[C@H](Cc2ccc(O)cc2)NC(=O)[C@H](Cc2ccc(O)cc2)NC(=O)[C@H](CC(C)C)NC(=O)[C@@H](NC(=O)[C@H](CCC(=O)O)NC(=O)[C@@H](N)CC(C)C)CSSC[C@@H](C(=O)N[C@@H](CC(=O)O)C(=O)N[C@@H](CC(N)=O)C(=O)O)NC(=O)[C@H](C(C)C)NC(=O)[C@H](CCCCN)NC(=O)[C@H](Cc2c[nH]c3ccccc23)NC(=O)[C@H](CCCNC(=N)N)NC1=O [23–447] (H-LECLYYLRWKVCDN-OH; disulfide 3-12) | single digit micromolar | 48300 | 
CC[C@H](C)[C@H](NC(=O)[C@H](CCCCN)NC(=O)[C@@H](N)CCC(N)=O)C(=O)N[C@H](C(=O)N[C@@H](CCC(N)=O)C(=O)N[C@H]1CSSC[C@@H](C(=O)N[C@@H](CC(C)C)C(=O)N[C@@H](CC(C)C)C(=O)N[C@@H](CC(N)=O)C(=O)N[C@@H](CC(=O)O)C(=O)N[C@H](C(=O)O)C(C)C)NC(=O)[C@@H]2CCCN2C(=O)[C@H](Cc2ccc(O)cc2)NC(=O)[C@H]([C@@H](C)O)NC(=O)[C@H](Cc2c[nH]c3ccccc23)NC(=O)[C@H]([C@@H](C)CC)NC(=O)[C@H]([C@@H](C)CC)NC(=O)[C@H](Cc2ccc(O)cc2)NC(=O)[C@H](C(C)C)NC1=O)[C@@H](C)O [23–441] (H-QKITQCVYIIWTYPCLLNDV-OH; disulfide 6-15) | single digit micromolar | 190000 | 
CC[C@H](C)[C@H](NC(=O)[C@H](CCC(=O)O)NC(=O)[C@H](CCCCN)NC(=O)[C@@H](NC(=O)[C@@H](N)Cc1ccccc1)[C@@H](C)O)C(=O)N[C@@H](CC(=O)O)C(=O)N[C@@H](CO)C(=O)N[C@@H](Cc1c[nH]c2ccccc12)C(=O)N[C@@H](Cc1c[nH]c2ccccc12)C(=O)N[C@@H](CC(C)C)C(=O)N[C@@H](CO)C(=O)N[C@@H](CC(C)C)C(=O)N[C@@H](CCSC)C(=O)N[C@@H](CO)C(=O)N[C@@H](CO)C(=O)O [23–437] (H-FTKEIDSWWLSLMSS-OH) | single digit micromolar | 178000 | 
B1 |  |  | binding result [3]: binds
B2 |  |  | binding result [4]: binds
B3 |  |  | binding result [5]: binds
